Assay results from paper PMC7827406, “Structure–Activity Relationship (SAR) Study of Spautin-1 to Entail the Discovery of Novel NEK4 Inhibitors” (International Journal of Molecular Sciences, 2021).
Read-outs that look alike come from different tables or passages of the source.

How the values were obtained:
Experiment in all cases: biochemical
Parameters in all cases: Eurofins KinaseProfiler full panel at Km ATP, residual kinase activity (%) relative to DMSO
NEK6(h) = NEK6(h) (Homo sapiens, UniProt Q9HC98)
Outline: (§1)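 Two 10 µM single-concentration screens were run: a competition-binding screen, in which DNA-tagged kinase bound to immobilized ligands was quantified by qPCR, and a radiometric activity panel at Km ATP. Each is expressed as residual kinase activity (%).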

TAO3(h) = target: T1, TAO3(h) (Homo sapiens, UniProt Q9H2K8)
T1 construct: gene TAOK3
T1 sequence (Q9H2K8 1-898): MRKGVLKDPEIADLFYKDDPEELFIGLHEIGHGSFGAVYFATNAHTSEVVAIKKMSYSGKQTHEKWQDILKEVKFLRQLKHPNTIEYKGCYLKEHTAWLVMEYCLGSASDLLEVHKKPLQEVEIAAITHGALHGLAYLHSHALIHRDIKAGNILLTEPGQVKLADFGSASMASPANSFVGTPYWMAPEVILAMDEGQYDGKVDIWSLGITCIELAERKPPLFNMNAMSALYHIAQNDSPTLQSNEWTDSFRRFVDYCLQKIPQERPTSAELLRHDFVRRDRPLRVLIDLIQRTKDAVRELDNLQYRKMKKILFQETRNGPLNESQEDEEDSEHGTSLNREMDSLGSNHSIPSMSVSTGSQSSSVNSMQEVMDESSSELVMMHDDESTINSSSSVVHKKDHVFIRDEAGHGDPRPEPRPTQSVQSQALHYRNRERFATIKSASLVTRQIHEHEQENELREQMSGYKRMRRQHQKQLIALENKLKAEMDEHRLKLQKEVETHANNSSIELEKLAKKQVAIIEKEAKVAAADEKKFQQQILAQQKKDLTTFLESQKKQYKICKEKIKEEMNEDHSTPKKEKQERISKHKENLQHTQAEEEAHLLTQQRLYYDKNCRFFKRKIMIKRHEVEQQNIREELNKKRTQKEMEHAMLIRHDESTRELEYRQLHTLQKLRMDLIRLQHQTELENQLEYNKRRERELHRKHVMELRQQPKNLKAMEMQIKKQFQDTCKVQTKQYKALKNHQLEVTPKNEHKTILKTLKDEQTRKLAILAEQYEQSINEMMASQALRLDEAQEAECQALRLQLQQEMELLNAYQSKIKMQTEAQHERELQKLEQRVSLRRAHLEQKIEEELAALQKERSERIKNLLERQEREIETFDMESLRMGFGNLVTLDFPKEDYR
Outline: as §1

ULK3(h) = target: T2, ULK3(h) (Homo sapiens, UniProt Q6PHR2)
T2 sequence (Q6PHR2 1-472): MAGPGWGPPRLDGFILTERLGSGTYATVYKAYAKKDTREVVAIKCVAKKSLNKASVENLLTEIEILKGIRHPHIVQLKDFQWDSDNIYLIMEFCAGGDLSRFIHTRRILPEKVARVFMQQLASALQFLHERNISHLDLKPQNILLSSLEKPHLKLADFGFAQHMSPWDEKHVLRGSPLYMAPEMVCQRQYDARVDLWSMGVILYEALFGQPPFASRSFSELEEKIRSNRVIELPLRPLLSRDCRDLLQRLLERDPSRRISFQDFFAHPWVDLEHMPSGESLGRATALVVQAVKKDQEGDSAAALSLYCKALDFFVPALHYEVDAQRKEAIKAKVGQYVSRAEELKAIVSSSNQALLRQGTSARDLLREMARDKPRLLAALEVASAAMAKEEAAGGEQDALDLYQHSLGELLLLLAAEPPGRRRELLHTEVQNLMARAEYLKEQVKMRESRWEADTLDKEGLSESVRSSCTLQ
Outline: as §1

MAP4K4(h) = MAP4K4(h) (Homo sapiens, UniProt O95819)
Outline: as §1

FGFR1(h) = FGFR1(h) (Homo sapiens, UniProt P11362)
Outline: as §1

CaMKK2(h) = CaMKK2(h) (Homo sapiens, UniProt Q96RR4)
Outline: as §1

mTOR/FKBP12(h) = mTOR/FKBP12(h) (Homo sapiens, UniProt P42345)
Outline: as §1

MAP4K5(h) = MAP4K5(h) (Homo sapiens, UniProt Q9Y4K4)
Outline: as §1

[1] = read-out: Residual activity (%) 5ay
[2] = read-out: Residual activity (%) Spautin-1 5aa
[3] = read-out: Residual activity (%) 5at
[4] = read-out: Residual activity (%) 5as

Sequence of FGFR1(h) (P11362 whole entry): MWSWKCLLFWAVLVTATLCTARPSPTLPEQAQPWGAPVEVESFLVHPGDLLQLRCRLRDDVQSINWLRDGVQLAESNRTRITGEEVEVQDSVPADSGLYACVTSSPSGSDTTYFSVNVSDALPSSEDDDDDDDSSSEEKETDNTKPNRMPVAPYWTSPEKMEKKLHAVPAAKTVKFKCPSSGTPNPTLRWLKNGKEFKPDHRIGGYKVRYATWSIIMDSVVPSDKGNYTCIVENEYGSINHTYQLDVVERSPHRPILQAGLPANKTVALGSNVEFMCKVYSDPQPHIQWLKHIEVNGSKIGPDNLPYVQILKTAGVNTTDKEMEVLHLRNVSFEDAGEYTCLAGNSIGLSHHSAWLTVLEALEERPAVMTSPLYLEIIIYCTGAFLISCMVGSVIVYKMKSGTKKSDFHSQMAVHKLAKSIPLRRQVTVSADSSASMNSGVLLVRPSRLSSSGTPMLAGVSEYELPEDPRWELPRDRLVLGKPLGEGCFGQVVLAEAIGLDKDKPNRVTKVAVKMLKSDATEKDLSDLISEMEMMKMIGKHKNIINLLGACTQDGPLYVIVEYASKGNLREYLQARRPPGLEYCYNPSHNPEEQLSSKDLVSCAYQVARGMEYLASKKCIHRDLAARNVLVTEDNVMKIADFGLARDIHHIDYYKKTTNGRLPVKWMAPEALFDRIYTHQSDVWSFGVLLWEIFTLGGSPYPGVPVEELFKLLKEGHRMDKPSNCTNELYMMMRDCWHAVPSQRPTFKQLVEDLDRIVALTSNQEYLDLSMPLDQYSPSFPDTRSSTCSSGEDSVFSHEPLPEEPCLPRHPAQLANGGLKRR
Sequence of CaMKK2(h) (Q96RR4 whole entry): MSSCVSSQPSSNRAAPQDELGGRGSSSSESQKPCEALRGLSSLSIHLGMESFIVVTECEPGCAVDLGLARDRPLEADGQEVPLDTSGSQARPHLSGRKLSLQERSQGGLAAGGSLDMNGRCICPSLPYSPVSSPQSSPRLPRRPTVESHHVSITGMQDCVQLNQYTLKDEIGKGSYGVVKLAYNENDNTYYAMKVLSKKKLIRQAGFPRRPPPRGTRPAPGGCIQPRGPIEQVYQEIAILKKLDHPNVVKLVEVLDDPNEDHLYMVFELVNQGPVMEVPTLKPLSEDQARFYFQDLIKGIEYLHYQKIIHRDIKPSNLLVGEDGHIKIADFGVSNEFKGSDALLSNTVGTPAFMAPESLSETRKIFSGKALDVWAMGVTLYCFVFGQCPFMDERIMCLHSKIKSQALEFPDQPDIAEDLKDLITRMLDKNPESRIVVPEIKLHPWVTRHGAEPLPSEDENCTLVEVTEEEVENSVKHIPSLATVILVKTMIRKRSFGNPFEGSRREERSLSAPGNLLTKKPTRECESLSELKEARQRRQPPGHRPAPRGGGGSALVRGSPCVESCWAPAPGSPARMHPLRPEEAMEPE
Sequence of NEK6(h) (Q9HC98 whole entry): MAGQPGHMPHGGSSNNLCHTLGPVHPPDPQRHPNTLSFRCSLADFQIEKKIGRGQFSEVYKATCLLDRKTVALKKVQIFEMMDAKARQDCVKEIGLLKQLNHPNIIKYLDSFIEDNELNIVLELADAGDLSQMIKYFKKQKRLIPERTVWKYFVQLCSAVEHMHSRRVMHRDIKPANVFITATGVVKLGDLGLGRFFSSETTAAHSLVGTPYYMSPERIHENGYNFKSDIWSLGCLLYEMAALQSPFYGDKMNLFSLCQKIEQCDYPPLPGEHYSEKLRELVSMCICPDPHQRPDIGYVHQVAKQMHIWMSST
Sequence of MAP4K5(h) (Q9Y4K4 whole entry): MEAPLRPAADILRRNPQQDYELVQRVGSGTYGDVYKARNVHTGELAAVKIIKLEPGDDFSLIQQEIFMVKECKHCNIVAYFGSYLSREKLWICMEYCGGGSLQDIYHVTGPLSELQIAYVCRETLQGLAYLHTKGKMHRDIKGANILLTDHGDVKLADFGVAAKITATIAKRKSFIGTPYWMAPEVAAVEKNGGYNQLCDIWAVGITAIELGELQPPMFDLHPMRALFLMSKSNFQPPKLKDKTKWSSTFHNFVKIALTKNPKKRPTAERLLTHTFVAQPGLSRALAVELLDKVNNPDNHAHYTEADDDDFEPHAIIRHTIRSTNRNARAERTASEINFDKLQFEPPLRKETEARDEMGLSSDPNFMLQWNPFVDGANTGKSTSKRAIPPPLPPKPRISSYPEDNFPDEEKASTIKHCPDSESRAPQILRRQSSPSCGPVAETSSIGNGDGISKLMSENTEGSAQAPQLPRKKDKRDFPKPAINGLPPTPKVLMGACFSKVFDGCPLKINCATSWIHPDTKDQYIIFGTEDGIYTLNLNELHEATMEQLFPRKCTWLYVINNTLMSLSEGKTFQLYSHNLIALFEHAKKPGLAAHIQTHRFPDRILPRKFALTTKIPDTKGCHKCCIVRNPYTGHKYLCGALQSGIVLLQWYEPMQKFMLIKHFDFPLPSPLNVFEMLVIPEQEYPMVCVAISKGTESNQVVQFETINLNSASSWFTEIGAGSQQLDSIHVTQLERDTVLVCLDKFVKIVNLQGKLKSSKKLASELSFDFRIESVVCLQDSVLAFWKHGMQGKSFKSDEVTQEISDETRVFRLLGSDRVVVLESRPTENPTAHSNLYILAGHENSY
Sequence of MAP4K4(h) (O95819 whole entry): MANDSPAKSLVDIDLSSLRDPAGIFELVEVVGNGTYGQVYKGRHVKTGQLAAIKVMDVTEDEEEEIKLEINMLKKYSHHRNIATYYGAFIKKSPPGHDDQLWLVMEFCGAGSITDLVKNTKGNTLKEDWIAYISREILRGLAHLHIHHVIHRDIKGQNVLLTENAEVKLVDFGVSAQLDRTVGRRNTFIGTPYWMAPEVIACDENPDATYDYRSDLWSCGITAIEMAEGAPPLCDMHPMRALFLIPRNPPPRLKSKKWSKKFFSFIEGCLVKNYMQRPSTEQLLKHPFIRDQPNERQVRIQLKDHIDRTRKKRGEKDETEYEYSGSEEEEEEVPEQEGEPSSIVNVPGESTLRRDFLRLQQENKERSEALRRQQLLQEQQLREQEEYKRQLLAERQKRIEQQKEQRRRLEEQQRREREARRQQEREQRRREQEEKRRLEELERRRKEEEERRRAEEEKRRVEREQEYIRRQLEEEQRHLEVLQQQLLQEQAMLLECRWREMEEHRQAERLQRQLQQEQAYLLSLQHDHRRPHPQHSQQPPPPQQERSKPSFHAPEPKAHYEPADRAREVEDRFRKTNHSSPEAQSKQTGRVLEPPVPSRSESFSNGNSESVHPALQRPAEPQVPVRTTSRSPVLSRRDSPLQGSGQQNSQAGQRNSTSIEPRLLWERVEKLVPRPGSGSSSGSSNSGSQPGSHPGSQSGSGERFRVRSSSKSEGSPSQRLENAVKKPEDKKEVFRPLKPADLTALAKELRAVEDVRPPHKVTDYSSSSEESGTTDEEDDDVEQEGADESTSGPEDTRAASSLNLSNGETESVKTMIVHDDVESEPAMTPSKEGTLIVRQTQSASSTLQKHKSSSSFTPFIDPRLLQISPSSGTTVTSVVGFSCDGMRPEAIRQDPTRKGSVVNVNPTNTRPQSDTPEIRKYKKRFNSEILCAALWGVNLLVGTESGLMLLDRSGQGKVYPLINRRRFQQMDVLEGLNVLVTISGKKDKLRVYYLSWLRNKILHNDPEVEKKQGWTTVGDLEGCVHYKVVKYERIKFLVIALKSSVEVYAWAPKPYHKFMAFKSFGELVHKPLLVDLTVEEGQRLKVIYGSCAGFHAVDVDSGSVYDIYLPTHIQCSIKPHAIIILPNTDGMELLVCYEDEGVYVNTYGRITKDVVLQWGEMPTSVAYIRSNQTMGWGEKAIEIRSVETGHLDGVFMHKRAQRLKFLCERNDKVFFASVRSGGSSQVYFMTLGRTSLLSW

For `COc1ccc2ncnc(Nc3cccc(F)c3)c2c1` [5ay, N-(3-Fluorophenyl)-6-Methoxy-4-Quinazolinamine], the remaining activity at 10 µM (NEK6(h); [1]) was 91%, the remaining activity at 10 µM (TAO3(h); [1]) was 77% and the remaining activity at 10 µM (ULK3(h); [1]) was 90%. For the same molecule, the remaining activity at 10 µM (MAP4K4(h); [1]) was 73%, the remaining activity at 10 µM (FGFR1(h); [1]) was 81% and the remaining activity at 10 µM (CaMKK2(h); [1]) was 78%. For the same molecule, the remaining activity at 10 µM (mTOR/FKBP12(h); [1]) was 88% and the remaining activity at 10 µM (MAP4K5(h); [1]) was 80%.

In the case of `Fc1ccc(CNc2ncnc3ccc(F)cc23)cc1` [5aa, 6-Fluoro-N-(4-fluorobenzyl)-4-Quinazolinamine], the remaining activity at 10 µM (NEK6(h); [2]) is reported as 103%, the remaining activity at 10 µM (TAO3(h); [2]) is reported as 94% and the remaining activity at 10 µM (ULK3(h); [2]) is reported as 96%. The remaining activity at 10 µM (MAP4K4(h); [2]) was 75%, the remaining activity at 10 µM (FGFR1(h); [2]) was 91% and the remaining activity at 10 µM (CaMKK2(h); [2]) was 79%. For the same molecule, the remaining activity at 10 µM (mTOR/FKBP12(h); [2]) was 100% and the remaining activity at 10 µM (MAP4K5(h); [2]) was 92%.

For `Fc1ccc2ncnc(NCCc3ccc(Cl)cc3)c2c1` [5at, N-[2-(4-Chlorophenyl)Ethyl]-6-Fluoro-4-Quinazolinamine], the remaining activity at 10 µM (NEK6(h); [3]) was 79%, the remaining activity at 10 µM (TAO3(h); [3]) was 82% and the remaining activity at 10 µM (ULK3(h); [3]) was 93%. The remaining activity at 10 µM (MAP4K4(h); [3]) was 92%, the remaining activity at 10 µM (FGFR1(h); [3]) was 123% and the remaining activity at 10 µM (CaMKK2(h); [3]) was 96%. The remaining activity at 10 µM (mTOR/FKBP12(h); [3]) was 94% and the remaining activity at 10 µM (MAP4K5(h); [3]) was 97%.

With `Fc1ccc(CCNc2ncnc3ccc(F)cc23)cc1` [5as, 6-Fluoro-N-[2-(4-Fluorophenyl)Ethyl]-4-Quinazolinamine] the remaining activity at 10 µM (NEK6(h); [4]) was 94%, the remaining activity at 10 µM (TAO3(h); [4]) was 78% and the remaining activity at 10 µM (ULK3(h); [4]) was 92%. The remaining activity at 10 µM (MAP4K4(h); [4]) was 75%, the remaining activity at 10 µM (FGFR1(h); [4]) was 105% and the remaining activity at 10 µM (CaMKK2(h); [4]) was 87%. The remaining activity at 10 µM (mTOR/FKBP12(h); [4]) was 89% and the remaining activity at 10 µM (MAP4K5(h); [4]) was 89%.
